According to a melting point compilation (Tetko et al.; mined from patent text by program, amines drawn as free bases though some values may be those of a salt):

melting point [°C]	SMILES
> 260	Nc1nc(O)c2c(n1)NCC(CCc1cc(C(=O)O)n[nH]1)C2 (stereo not drawn)
150 to 151	Cc1ccc(N2CCN(c3c(C)c(C)c4c(c3C)CC(C)O4)CC2)cc1 (stereo not drawn)
237 to 240	CNS(=O)(=O)c1cn(C)c2cc(C)ccc2c1=O
30 to 32	CC(C)c1ccc(N(C=O)C(=O)N(C)C)cc1
141 to 142	COc1ccc(N=C(NC(=S)NCCO)c2ccccc2)cc1
42	CCOC(=O)C1=COc2ccccc2O1
162	CC(C)(C)C(=O)OCOC(=O)C(C)(C)n1nc2ccc(NCCCN3CCC(OC(c4ccccc4)c4ccccc4)CC3)nn2c1=O
78	CNC(=O)C(=O)c1ccccc1COc1ccccc1
101 to 102	C=CCOC(=O)c1cc(C23CC4CC(CC(C4)C2)C3)c(OC)cc1F
294 to 296	Cn1c2cc[nH]c(=O)c2c2cccc(F)c21
165 to 168	CCCC[C@H](C)CC(=O)N[C@H](CCC(=O)N[C@@H](C)C(=O)N[C@H](C)C(=O)O)C(=O)O
247 to 250	Nc1cc(-n2nc3ccc(Cl)cn3c2=O)c(F)cc1Cl
121 to 122	COc1ccc(Oc2ccc(C(=O)C(=O)c3ccc(Oc4ccc(OC)cc4)cc3)cc2)cc1
109 to 110	O=C(Nc1ccccc1)C1=NOCCS1
101 to 102	CC(C)c1nn(-c2ccc(C(F)(F)F)cn2)cc1CCCOc1cccc(OC(C)(C)C(=O)O)c1
140 to 144	Cn1ncnc1COc1nc2c(cc1C1CCC1)nnn2-c1c(F)cccc1F
68 to 70	ClCOc1ccc(-c2ccc(Cl)cc2)cc1
191 to 193	CCC(c1ccccc1)(c1ccccc1)c1ccnc(C(=O)O)c1
208 to 209	O=C1CC2CC(Oc3nc4ccccc4[nH]3)CC2C1 (stereo not drawn)
93 to 95	COc1ccc(C2CCN(C(=O)/C=C/c3ccccc3)CC2)cc1OC1CCCC1
78 to 79	Cc1ccc(-c2nc(COc3ccc(CCCn4ccnc4)cc3)cs2)s1
124 to 130	O=C(C[C@H](NC(=O)c1ccccc1)C(=O)O)c1ccc2oc3ccccc3c2c1
99 to 101	COc1cc(OC)nc(C(C(=O)O)C(C)C)n1 (stereo not drawn)

melting point [°C]	SMILES
97 to 98	COC(=O)C(=O)c1ccc(OCCOc2ccc(Oc3ccccc3)cc2)cc1
37 to 39	c1ccc(OCCCCCCN2CCN(c3nccs3)CC2)cc1
229 to 230	Cc1ccc(C(=O)c2c(C)c(C(=O)O)c(CC(=O)O)n2C)cc1
116 to 120	CN1C(=O)[C@@H](NC(=O)OC(C)(C)C)CSc2ccccc21
137 to 138	Nc1ccc(C(=O)c2ccccn2)cc1N
200 to 202	O=P1(c2ccccc2)c2ccccc2CN1c1ccc(Br)cc1 (stereo not drawn)
93 to 95	O=[N+]([O-])CS(=O)(=O)c1ccc(O)cc1
152 to 153	O=C(Nc1cccc(C(F)(F)F)c1)c1cccnc1NCc1ccncc1
132	C[C@H](C#Cc1ccc(Cc2ccc(Cl)cc2)s1)N(O)C(N)=O
85 to 87	CCCCc1nn(-c2cc(N)ccc2Cl)c(=O)n1Cc1ccc(-c2cc(CCC)ccc2S(=O)(=O)NC(C)(C)C)cc1F
215	CC(C)(C)c1ccc(S(=O)(=O)NC(=O)C(Oc2ccc3c(c2)C(=O)NC3=O)c2ccc3c(c2)OCO3)cc1 (stereo not drawn)
101 to 102	C#CCCOc1ccc(C=O)cc1OC
87.5	CCOC(=O)c1cc(C#N)cc(CO)n1
251 to 254	COc1ccc(-c2csc(Nc3cccnc3)n2)cc1OC
244 to 245	CC(=O)OCC(=O)C12OCOC1CC1C3CCC4=CC(=O)C=CC4(C)C3(Cl)C(O)CC12C (stereo not drawn)
350 to 352	Cc1nnc2nc(-c3ccccc3)c3cc([N+](=O)[O-])ccc3n12
117 to 119	COc1ccc(C2SCCCS2)cc1
276 to 278	O=C(NC1CCCCC1)n1cc(F)c(=O)[nH]c1=O
129 to 135	CN1C(=O)CC[C@]2(C)c3ccc(-c4cnc5ccccc5n4)cc3CC[C@@H]12
149 to 150	O=C1c2ccccc2C(=O)N1CCSc1ncccn1
44 to 45	CCCCCCCCOc1ccc(C(=O)COC(C)=O)cc1
182 to 183	COC(=O)C1=C(c2cc(OC)c(OC)c(OC)c2)c2ccccc2S(=O)(=O)N1Cc1ccc2c(c1)OCO2
118 to 120	C[C@@H]1[C@H](O)[C@@H](C)C=C(S(=O)(=O)c2ccccc2)[C@@H]2O[C@H]12

melting point [°C]	SMILES
169 to 172	c1cc(COc2cccc(-c3nnn[nH]3)c2)cc(OCc2ccc3ccccc3n2)c1
66.3 to 68.3	COCCCCCCCCCCCc1nnn[nH]1
217 to 218	COc1ccc(OC)c(CC(=O)CN2N=C(c3ccc(Cl)cc3)c3ccccc3-n3c(C)nnc32)c1
124 to 127	O=[N+]([O-])c1ccc(C(O)c2ccccn2)c(Cl)c1 (stereo not drawn)
> 250	Cc1ccc2c(=O)cc[nH]c2c1[N+](=O)[O-]
167 to 168	CCOC(=O)CCCCC1CC(n2c3ccccc3c3ccccc32)c2ccccc2N1C(=O)c1ccc(OC)cc1 (stereo not drawn)
262 to 265	O=c1[nH]c2c(Cc3nnn[nH]3)c3ccccc3n2c2ccccc12
71	CSC(=C[N+](=O)[O-])NCCSCc1ccc(CN(C)C)o1
87 to 90	CC(C)Nc1nc(N)nc2c1ncn2C1C=CC(CO)C1 (stereo not drawn)
158 to 160	FC(F)(F)c1cccc(C2OC3(CCNCC3)N3CCCCC23)c1 (stereo not drawn)
228 to 231	COc1cc(Nc2nc3c(s2)CCCC3c2ccccc2)ccc1-c1nc(C)no1 (stereo not drawn)
234 to 236	CC(=O)Nc1c(Cl)cc2c(=O)c(C(=O)O)cn3c2c1CCC3C (stereo not drawn)
81 to 83	O=C1NC(=O)C(CCOc2ccccc2)S1 (stereo not drawn)
295 to 298	O=C1CCC(c2ccc3[nH]c(-c4ccc(-n5ccnc5)cc4)cc3c2)=NN1
122 to 123	COC1C=C(C)C(=O)CC(C)(C)C1OC(=O)c1ccc([N+](=O)[O-])cc1 (stereo not drawn)
148 to 149	COc1ccc(C(C)=NOCCOc2ccc(CC3SC(=O)NC3=O)cc2)cn1 (stereo not drawn)
120 to 121	CSc1nc(Cl)c2ncccc2n1
209 to 211	CC(C)(C)C(=O)OCN1C(=O)NC2(C1=O)C(=O)N(Cc1ccc(Cl)c(Cl)c1)c1ccccc12 (stereo not drawn)
155 to 157	O=C1c2ccccc2C(=O)N1OCc1cn(C(c2ccccc2)(c2ccccc2)c2ccccc2)cn1
135 to 136	Cc1cn(S(C)(=O)=O)c2c1C(=O)CC(c1cccs1)C2 (stereo not drawn)
257 to 260	CCc1[nH]n(-c2c(Cl)cc(Cl)cc2Cl)c2nc(Cc3cccnc3)nc(=O)c1-2
124 to 126	c1ccc([C@@]23O[C@@H]2CCc2ccccc23)cc1
255	Cc1cc(-c2ccc(C#N)cc2)nc(-c2cccc(-c3cccc(S(N)(=O)=O)c3)n2)n1

melting point [°C]	SMILES
104 to 105	CC(C)(c1ccccc1)c1ccc2nc(-c3ccc(C(F)(F)F)cc3)oc(=O)c2c1
231 to 233	Cc1ccc2nc(-c3ccc(C#N)cc3)c(CNC(=O)CC(C)C)n2c1
81 to 85	Cc1ccnc(CSCCNc2ncc(Cc3cccnc3)c(=O)[nH]2)c1Br
191 to 192	COc1ccnc(CCc2nc3cc(-c4ccc(S(=O)(=O)N(C)c5ccc(Cl)cc5)cc4)cnc3[nH]2)c1
99 to 102	Cc1cc(C)cc(-c2nc(N)sc2-c2ccnc(NCc3ccccc3)c2)c1
71	CCOC(=O)c1cccc(N(CC(=O)OC(C)(C)C)C(=O)CNC(=O)Nc2cccc(C)c2)c1
85 to 90	Cc1noc(NS(=O)(=O)c2ccccc2-c2ccc(-c3ccccn3)cc2)c1C
134	COC(=O)Cc1cc(NC(=O)OC(C)(C)C)c([N+](=O)[O-])cc1C#Cc1ccccc1
173 to 175	Cn1c(=O)c(C(=O)O)nc2cc(F)c([N+](=O)[O-])cc21
160 to 161	CCOC(=O)c1cccc(NC(=O)C=Cc2cc(C(C)C)c(C(C)C)o2)c1
213 to 215	N=C(N)NCCc1ccc(NC(=O)CC(c2ccccc2)(c2ccccc2)c2ccccc2)cc1
261 to 262	CN=Cc1c(C(=O)OC)[nH]c2c(C)ccc(C)c12
162 to 167	Cn1nc2c(-c3ccc(Cl)cc3Cl)cccc2c1C1=NCCO1
89 to 92	CSC(C)(C(=O)O)c1ccc(CC(C)C)cc1 (stereo not drawn)
99 to 100	Cc1cc(Cl)ccc1-c1nn(C(C)(C)C(=O)N(C)C)cc1C
141 to 142	Cc1nc(-c2ccccc2)cc(-c2cccc([N+](=O)[O-])c2)c1C(=O)NCCN1CCOCC1
152	CC(O)CN(C)Cc1cc2c(=O)c(C(=O)NCc3ccc(Cl)cc3)cn(C)c2o1 (stereo not drawn)
80	CSc1ncccc1OCCO
246 to 248	Oc1ccc2c(ccn2-c2ccnc(N[C@H]3CC[C@H](O)CC3)n2)c1
152 to 154	O=C(NCCCC[C@H](Nc1nc2ccc(Cl)cc2cc1C(=O)O)C(=O)O)OCc1ccccc1
97 to 99	CC(C)(CCl)C(=O)C(Oc1ccc(-c2ccc(Cl)cc2)cc1)n1ccnc1 (stereo not drawn)
69	COC(=O)CCC#Cc1cc(Cl)ccc1NS(=O)(=O)c1cccc(C)c1
80	c1ccc(CCN2CCC(CCc3cc(-c4ccccc4)nc4ccccc34)CC2)cc1

SMILES	melting point [°C]
CCCCCCC(C)(C)c1cc(OCc2ccccc2)c2c(c1)OC(C)(C)CC2=O	52 to 52.5
C=CCc1cc(F)ccc1OCCCN1CCC2(CC1)C(=O)NCN2c1ccccc1	110 to 113
CC(CCCc1ccc(F)cc1)c1cc(O)c2c3c(c(=O)oc2c1)CCC3 (stereo not drawn)	133 to 135
FC(F)(F)CN1CCN=C(c2ccccc2)c2cc(Cl)ccc21	164 to 165
CNc1nc(C)c(-c2nc3ccccc3c(=O)n2-c2ccc(C(C)=O)cc2)s1	245 to 246
CCOC(=O)C1(c2ccc(Cl)cc2)CCN(C(=O)CC(c2ccccc2)(c2ccccc2)c2ccccc2)CC1	95 to 98
